In ChEMBL document CHEMBL1201862, “PubChem BioAssay data set” (2004):
The source made the active and inactive calls. Cut-off read from the data, not from the text of the source, for most assays here: actives have a measured IC50 and inactives only a lower limit.

Assays:
Type in all cases: functional
[1] = molecular target: T1, Replicative DNA helicase DnaB (Mycobacterium tuberculosis, UniProt P9WMR3); test: DnaB intein splicing inhibitors, dose response, biochemical, cell-free fluorescence (AID 449749)
T1 sequence (P9WMR3 whole entry): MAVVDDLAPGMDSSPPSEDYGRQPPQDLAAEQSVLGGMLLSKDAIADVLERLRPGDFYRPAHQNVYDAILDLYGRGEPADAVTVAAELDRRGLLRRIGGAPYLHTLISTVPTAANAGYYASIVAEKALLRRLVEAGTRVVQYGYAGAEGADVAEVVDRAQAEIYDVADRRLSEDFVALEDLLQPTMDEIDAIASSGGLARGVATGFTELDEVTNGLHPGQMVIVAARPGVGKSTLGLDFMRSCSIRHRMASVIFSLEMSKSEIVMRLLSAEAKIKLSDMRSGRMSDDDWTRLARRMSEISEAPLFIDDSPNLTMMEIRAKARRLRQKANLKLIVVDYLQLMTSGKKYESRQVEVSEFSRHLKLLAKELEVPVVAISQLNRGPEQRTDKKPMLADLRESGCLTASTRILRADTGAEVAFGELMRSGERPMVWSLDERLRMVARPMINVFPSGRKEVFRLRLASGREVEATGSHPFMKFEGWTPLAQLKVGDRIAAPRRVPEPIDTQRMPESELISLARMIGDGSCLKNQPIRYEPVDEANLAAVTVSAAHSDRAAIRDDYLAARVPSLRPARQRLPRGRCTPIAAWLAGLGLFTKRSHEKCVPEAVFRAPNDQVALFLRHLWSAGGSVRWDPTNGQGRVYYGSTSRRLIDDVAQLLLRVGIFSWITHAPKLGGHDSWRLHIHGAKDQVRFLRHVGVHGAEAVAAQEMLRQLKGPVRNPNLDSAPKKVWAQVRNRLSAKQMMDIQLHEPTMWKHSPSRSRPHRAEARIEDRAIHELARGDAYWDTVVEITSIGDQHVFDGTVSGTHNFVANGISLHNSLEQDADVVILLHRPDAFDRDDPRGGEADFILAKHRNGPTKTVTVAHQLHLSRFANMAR

[2] = molecular target: T2, Sentrin-specific protease 7 (Homo sapiens, UniProt Q9BQF6);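 note: Luminescence-based dose-response confirmation of ultra-high-throughput screening hits, measuring inhibition of SENP7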
T2 sequence (Q9BQF6 whole entry): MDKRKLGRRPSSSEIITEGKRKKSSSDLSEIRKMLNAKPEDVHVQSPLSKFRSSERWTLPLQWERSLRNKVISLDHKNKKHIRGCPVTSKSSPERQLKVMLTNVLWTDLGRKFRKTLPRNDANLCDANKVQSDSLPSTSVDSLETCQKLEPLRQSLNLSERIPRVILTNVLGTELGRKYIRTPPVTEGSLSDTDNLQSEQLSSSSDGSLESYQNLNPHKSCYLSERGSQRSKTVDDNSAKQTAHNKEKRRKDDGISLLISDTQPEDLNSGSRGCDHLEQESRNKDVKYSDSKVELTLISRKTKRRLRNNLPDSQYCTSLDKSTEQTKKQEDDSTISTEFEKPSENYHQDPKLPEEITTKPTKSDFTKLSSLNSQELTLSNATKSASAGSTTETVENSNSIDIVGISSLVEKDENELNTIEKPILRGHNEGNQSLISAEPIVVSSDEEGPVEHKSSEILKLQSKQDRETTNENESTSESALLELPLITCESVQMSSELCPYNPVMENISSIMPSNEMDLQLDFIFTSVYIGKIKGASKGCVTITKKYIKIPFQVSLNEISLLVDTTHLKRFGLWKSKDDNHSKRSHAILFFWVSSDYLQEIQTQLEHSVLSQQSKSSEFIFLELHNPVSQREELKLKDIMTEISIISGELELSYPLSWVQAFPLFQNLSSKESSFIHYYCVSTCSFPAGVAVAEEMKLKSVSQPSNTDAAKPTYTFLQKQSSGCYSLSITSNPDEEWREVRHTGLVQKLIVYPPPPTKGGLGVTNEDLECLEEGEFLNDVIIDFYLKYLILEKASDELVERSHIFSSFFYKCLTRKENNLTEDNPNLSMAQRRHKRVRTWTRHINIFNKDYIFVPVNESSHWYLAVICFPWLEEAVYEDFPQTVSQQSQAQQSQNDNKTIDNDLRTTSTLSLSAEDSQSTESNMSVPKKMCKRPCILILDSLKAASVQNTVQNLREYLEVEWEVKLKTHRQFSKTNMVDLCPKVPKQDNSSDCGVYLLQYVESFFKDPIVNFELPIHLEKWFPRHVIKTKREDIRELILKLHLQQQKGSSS

[3] = molecular target: T3, Sentrin-specific protease 6 (Homo sapiens, UniProt Q9GZR1);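 note: Luminescence-based dose-response confirmatory assay of SENP6 inhibition, following up an ultra-high-throughput screen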
T3 sequence (Q9GZR1 whole entry): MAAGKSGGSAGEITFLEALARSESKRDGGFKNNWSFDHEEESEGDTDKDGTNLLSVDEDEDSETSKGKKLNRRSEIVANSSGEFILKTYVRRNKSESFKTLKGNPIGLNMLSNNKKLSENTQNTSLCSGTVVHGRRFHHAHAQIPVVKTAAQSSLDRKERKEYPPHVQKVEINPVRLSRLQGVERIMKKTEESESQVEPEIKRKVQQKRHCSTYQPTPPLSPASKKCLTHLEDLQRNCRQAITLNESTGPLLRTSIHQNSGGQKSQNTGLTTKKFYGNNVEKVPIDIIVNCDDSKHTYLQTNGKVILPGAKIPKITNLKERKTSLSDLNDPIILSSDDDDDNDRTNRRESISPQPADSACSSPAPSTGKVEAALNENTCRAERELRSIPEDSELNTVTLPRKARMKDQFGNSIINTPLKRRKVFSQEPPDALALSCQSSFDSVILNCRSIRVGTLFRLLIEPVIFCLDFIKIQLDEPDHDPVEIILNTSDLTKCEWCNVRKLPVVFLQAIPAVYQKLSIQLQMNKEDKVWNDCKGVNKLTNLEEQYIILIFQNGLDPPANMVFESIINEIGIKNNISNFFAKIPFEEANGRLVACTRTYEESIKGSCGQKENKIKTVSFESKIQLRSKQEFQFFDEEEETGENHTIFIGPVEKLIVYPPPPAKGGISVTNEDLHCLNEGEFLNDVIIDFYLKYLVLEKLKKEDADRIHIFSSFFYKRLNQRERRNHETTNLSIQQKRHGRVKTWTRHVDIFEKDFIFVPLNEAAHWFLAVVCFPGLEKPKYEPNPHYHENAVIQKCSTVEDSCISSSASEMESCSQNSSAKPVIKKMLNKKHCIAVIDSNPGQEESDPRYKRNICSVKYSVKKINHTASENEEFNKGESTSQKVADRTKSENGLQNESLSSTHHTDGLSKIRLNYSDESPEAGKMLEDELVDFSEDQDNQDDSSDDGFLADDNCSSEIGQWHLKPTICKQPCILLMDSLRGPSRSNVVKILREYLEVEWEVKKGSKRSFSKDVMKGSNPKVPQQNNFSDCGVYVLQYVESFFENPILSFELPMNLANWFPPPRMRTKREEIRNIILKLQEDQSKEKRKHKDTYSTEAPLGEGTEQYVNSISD

| Compound | AC50 [1] | IC50 [2] | IC50 [3] |
| --- | --- | --- | --- |
| Cc1cccc(C)c1-n1cccc1/C=C1\SC(=S)N(c2cccc(C(=O)O)c2)C1=O | 3.26 µM (active) |  |  |
| Oc1ccc(/C=N/Nc2cc(N3CCCC3)nc(N3CCCC3)n2)cc1 |  | 31 µM (active) | 6.05 µM (active) |
| COc1ccc(S(=O)(=O)/N=C2\C=C(Nc3ccc(O)cc3)C(=O)c3ccccc32)cc1 | > 380 µM (inconclusive) |  |  |
| COc1ccc(/C=N/Nc2cc(N3CCCC3)nc(N3CCCC3)n2)cc1 |  | 5.23 µM (active) | 2.71 µM (active) |
